Results taken from US20240218022A1, “ANTI-VISTA MACROCYCLIC PEPTIDES AND COMPOSITIONS” (BRISTOL-MYERS SQUIBB COMPANY, priority 2022, published 2024).
Starred links: 1 amine or outer side, 2 acyl side, 3 side chain; linkers in the order of their positions; H or OH if unused. Positions of bridges follow the written chain, without caps; N, C: chain ends. Non-standard residues stand in square brackets, D forms with d. Residues, ends and D or L forms follow the SMILES beside them. ξ: configuration not given here. Phe(4-COOH) = N[C@@H](Cc1ccc(C(=O)O)cc1)C(=O)O; γGlu = O=C(O)[C@H](CCC(=O)[*:2])N[*:1]; βAsp = O=C(O)[C@H](CC(=O)[*:2])N[*:1]; NMeF = CN[C@@H](Cc1ccccc1)C(=O)O; Ile(3ξ) = CCC(C)[C@H](N)C(=O)O; NMeL = CN[C@@H](CC(C)C)C(=O)O; Ahp(2) = CCCCC[C@H](N)C(=O)O; NMeNle = CCCC[C@H](NC)C(=O)O; Tle = CC(C)(C)[C@H](N)C(=O)O; NHexGly = CCCCCCNCC(=O)O; NMeA = CN[C@@H](C)C(=O)O; Nle = CCCC[C@H](N)C(=O)O; Orn = NCCC[C@H](N)C(=O)O; Aun = NCCCCCCCCCCC(=O)O; AEEA = NCCOCCOCC(=O)O

Target: T1, mouse VISTA (mVISTA) (Mus musculus, UniProt Q9D659)
T1 construct: expressed in transfected cells; host or cells: Human embryonic kidney 293T cells
T1 sequence (Q9D659 33-308): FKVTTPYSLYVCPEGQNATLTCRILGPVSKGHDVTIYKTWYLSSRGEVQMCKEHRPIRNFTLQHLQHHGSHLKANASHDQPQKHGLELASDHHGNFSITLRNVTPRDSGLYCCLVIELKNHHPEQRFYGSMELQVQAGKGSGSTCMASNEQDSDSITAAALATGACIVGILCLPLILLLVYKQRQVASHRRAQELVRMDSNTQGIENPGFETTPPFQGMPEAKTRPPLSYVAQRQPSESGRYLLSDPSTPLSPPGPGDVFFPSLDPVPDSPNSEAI
Test: Cell-Based Binding High-Content Assay For mVISTA (HC CBA mVISTA)
Conditions: read-out: HC CBA mVISTA IC50
Outline: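 Competition of compound with a biotinylated peptide (final 2 nM, 30 min at RT) for binding to mVISTA on 293T cells, run under no-wash or wash (1 h compound preincubation then removal) formats. Readout by Alexa 647–streptavidin imaging on a high-content platform; four-parameter logistic fit gave IC50.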

SMILES | IC50
CCCCCCN1CC(=O)N[C@@H](Cc2ccc(O)cc2)C(=O)N[C@@H](CCCCC)C(=O)N[C@@H](CC(N)=O)C(=O)N[C@@H](CCCNC(=N)N)C(=O)N(C)[C@@H](CCCC)C(=O)N[C@@H](CCCCC)C(=O)N2CCC[C@H]2C(=O)N[C@@H](C(C)(C)C)C(=O)N[C@@H](CO)C(=O)N[C@H](C(=O)N[C@@H](CCC(=O)NCCCCCCCCCCC(=O)O)C(=O)O)CSCC(=O)N[C@@H](Cc2ccccc2)C(=O)N[C@@H](Cc2ccc(O)cc2)C(=O)N[C@@H](CC(=O)O)C1=O [Example 2142] ({CH2CO}-FYD[NHexGly]Y[Ahp(2)]NR[NMeNle][Ahp(2)]P[Tle]SC[γGlu][Aun]-OH; thioether N-14) | 32.5 nM
CCCCCCN1CC(=O)N[C@@H](Cc2ccc(O)cc2)C(=O)N[C@@H](CCCCC)C(=O)N[C@@H](CC(N)=O)C(=O)N[C@@H](CCCN)C(=O)N(C)[C@@H](CCCC)C(=O)N[C@@H](CCCCC)C(=O)N2CCC[C@H]2C(=O)N[C@@H](C(C)(C)C)C(=O)N[C@@H](CO)C(=O)N[C@H](C(=O)N[C@@H](CCC(=O)NCCCCCCCCCCC(=O)O)C(=O)O)CSCC(=O)N[C@@H](Cc2ccccc2)C(=O)N[C@@H](Cc2ccc(O)cc2)C(=O)N[C@@H](CC(=O)O)C1=O [Example 2143] ({CH2CO}-FYD[NHexGly]Y[Ahp(2)]N[Orn][NMeNle][Ahp(2)]P[Tle]SC[γGlu][Aun]-OH; thioether N-14) | 29.4 nM
CCCCCCN1CC(=O)N[C@@H](Cc2ccc(O)cc2)C(=O)N[C@@H](CCCCC)C(=O)N[C@@H](CC(N)=O)C(=O)N[C@@H](CCCN)C(=O)N(C)[C@@H](CCCC)C(=O)N[C@@H](CCCCC)C(=O)N2CCC[C@H]2C(=O)N[C@@H](C(C)(C)C)C(=O)N[C@@H](CO)C(=O)N[C@H](C(=O)N[C@@H](CCC(=O)NCCCCCCCCCCC(=O)O)C(=O)O)CSCC(=O)N[C@@H](Cc2ccccc2)C(=O)N[C@@H](Cc2c[nH]c3ccccc23)C(=O)N[C@@H](CC(=O)O)C1=O [Example 2144] ({CH2CO}-FWD[NHexGly]Y[Ahp(2)]N[Orn][NMeNle][Ahp(2)]P[Tle]SC[γGlu][Aun]-OH; thioether N-14) | 39 nM
CCCCCCN1CC(=O)N[C@@H](Cc2ccc(O)cc2)C(=O)N[C@@H](CCCC)C(=O)N[C@@H](CC(N)=O)C(=O)N[C@@H](CCCNC(=N)N)C(=O)N(C)[C@@H](CCCC)C(=O)N[C@@H](CCCCC)C(=O)N(C)[C@@H](C)C(=O)N[C@@H](C(C)(C)C)C(=O)N[C@@H](CO)C(=O)N[C@H](C(=O)N[C@@H](CC(=O)NCCOCCOCC(=O)NCCCCCCCCCCC(=O)O)C(=O)O)CSCC(=O)N[C@@H](Cc2ccccc2)C(=O)N[C@@H](Cc2c[nH]c3ccccc23)C(=O)N[C@@H](CC(=O)O)C1=O [Example 2169] ({CH2CO}-FWD[NHexGly]Y[Nle]NR[NMeNle][Ahp(2)][NMeA][Tle]SC[βAsp][AEEA][Aun]-OH; thioether N-14) | 19.8 nM
CCCCCCN1CC(=O)N[C@@H](Cc2ccc(O)cc2)C(=O)N[C@@H](CCCC)C(=O)N[C@@H](CC(N)=O)C(=O)N[C@@H](CCCNC(=N)N)C(=O)N(C)[C@@H](CCCC)C(=O)N[C@@H](CCCCC)C(=O)N(C)[C@@H](C)C(=O)N[C@@H](C(C)CC)C(=O)N[C@@H](CO)C(=O)N[C@H](C(=O)N[C@@H](CC(=O)NCCOCCOCC(=O)NCCCCCCCCCCC(=O)O)C(=O)O)CSCC(=O)N[C@@H](Cc2ccccc2)C(=O)N[C@@H](Cc2c[nH]c3ccccc23)C(=O)N[C@@H](CC(=O)O)C1=O (stereo partly shown) [Example 2171] ({CH2CO}-FWD[NHexGly]Y[Nle]NR[NMeNle][Ahp(2)][NMeA][Ile(3ξ)]SC[βAsp][AEEA][Aun]-OH; thioether N-14) | 28.8 nM
CCCCCCN1CC(=O)N[C@@H](Cc2ccc(O)cc2)C(=O)N[C@@H](CCCC)C(=O)N[C@@H](CC(N)=O)C(=O)N[C@@H](CCCNC(=N)N)C(=O)N(C)[C@@H](CCCC)C(=O)N[C@@H](CCCCC)C(=O)N(C)[C@@H](C)C(=O)N[C@@H](C(C)C)C(=O)N[C@@H](CO)C(=O)N[C@H](C(=O)N[C@@H](CC(=O)NCCOCCOCC(=O)NCCCCCCCCCCC(=O)O)C(=O)O)CSCC(=O)N[C@@H](Cc2ccccc2)C(=O)N[C@@H](Cc2c[nH]c3ccccc23)C(=O)N[C@@H](CC(=O)O)C1=O [Example 2172] ({CH2CO}-FWD[NHexGly]Y[Nle]NR[NMeNle][Ahp(2)][NMeA]VSC[βAsp][AEEA][Aun]-OH; thioether N-14) | 30.6 nM
CCCCCCN1CC(=O)N[C@@H](Cc2ccc(O)cc2)C(=O)N[C@@H](CCCC)C(=O)N[C@@H](CC(N)=O)C(=O)N[C@@H](CCCNC(=N)N)C(=O)N(C)[C@@H](CCCC)C(=O)N[C@@H](CCCCC)C(=O)N(C)[C@@H](CCCC)C(=O)N[C@@H](C(C)(C)C)C(=O)N[C@@H](CO)C(=O)N[C@H](C(=O)N[C@@H](CC(=O)NCCOCCOCC(=O)NCCCCCCCCCCC(=O)O)C(=O)O)CSCC(=O)N[C@@H](Cc2ccccc2)C(=O)N[C@@H](Cc2c[nH]c3ccccc23)C(=O)N[C@@H](CC(=O)O)C1=O [Example 2173] ({CH2CO}-FWD[NHexGly]Y[Nle]NR[NMeNle][Ahp(2)][NMeNle][Tle]SC[βAsp][AEEA][Aun]-OH; thioether N-14) | 35.1 nM
CCCCCCN1CC(=O)N[C@@H](Cc2ccc(O)cc2)C(=O)N[C@@H](CCCC)C(=O)N[C@@H](CC(N)=O)C(=O)N[C@@H](CCCNC(=N)N)C(=O)N(C)[C@@H](C)C(=O)N[C@@H](CCCCC)C(=O)N2CCC[C@H]2C(=O)N[C@@H](C(C)C)C(=O)N[C@@H](CO)C(=O)N[C@H](C(=O)N[C@@H](CC(=O)NCCOCCOCC(=O)NCCCCCCCCCCC(=O)O)C(=O)O)CSCC(=O)N[C@@H](Cc2ccccc2)C(=O)N[C@@H](Cc2c[nH]c3ccccc23)C(=O)N[C@@H](CC(=O)O)C1=O [Example 2174] ({CH2CO}-FWD[NHexGly]Y[Nle]NR[NMeA][Ahp(2)]PVSC[βAsp][AEEA][Aun]-OH; thioether N-14) | 16.6 nM
CCCCCCN1CC(=O)N[C@@H](Cc2ccc(O)cc2)C(=O)N[C@@H](CCCC)C(=O)N[C@@H](CC(N)=O)C(=O)N[C@@H](CCCNC(=N)N)C(=O)N[C@@H](Cc2ccc(C(=O)O)cc2)C(=O)N[C@@H](CCCCC)C(=O)N2CCC[C@H]2C(=O)N[C@@H](C(C)C)C(=O)N[C@@H](CO)C(=O)N[C@H](C(=O)N[C@@H](CC(=O)NCCOCCOCC(=O)NCCCCCCCCCCC(=O)O)C(=O)O)CSCC(=O)N[C@@H](Cc2ccccc2)C(=O)N[C@@H](Cc2c[nH]c3ccccc23)C(=O)N[C@@H](CC(=O)O)C1=O [Example 2176] ({CH2CO}-FWD[NHexGly]Y[Nle]NR[Phe(4-COOH)][Ahp(2)]PVSC[βAsp][AEEA][Aun]-OH; thioether N-14) | 19.8 nM
CCCCCCN1CC(=O)N[C@@H](Cc2ccc(O)cc2)C(=O)N[C@@H](CCCC)C(=O)N[C@@H](CC(N)=O)C(=O)N[C@@H](CCCNC(=N)N)C(=O)N(C)[C@@H](Cc2ccccc2)C(=O)N[C@@H](CCCCC)C(=O)N2CCC[C@H]2C(=O)N[C@@H](C(C)C)C(=O)N[C@@H](CO)C(=O)N[C@H](C(=O)N[C@@H](CC(=O)NCCOCCOCC(=O)NCCCCCCCCCCC(=O)O)C(=O)O)CSCC(=O)N[C@@H](Cc2ccccc2)C(=O)N[C@@H](Cc2c[nH]c3ccccc23)C(=O)N[C@@H](CC(=O)O)C1=O [Example 2177] ({CH2CO}-FWD[NHexGly]Y[Nle]NR[NMeF][Ahp(2)]PVSC[βAsp][AEEA][Aun]-OH; thioether N-14) | 38.4 nM
CCCCCCN1CC(=O)N[C@@H](Cc2ccc(O)cc2)C(=O)N[C@@H](CCCC)C(=O)N[C@@H](CC(N)=O)C(=O)N[C@@H](CCCNC(=N)N)C(=O)N(C)[C@@H](CCCC)C(=O)N[C@@H](CCCCC)C(=O)N(C)[C@@H](CC(C)C)C(=O)N[C@@H](C(C)CC)C(=O)N[C@@H](CO)C(=O)N[C@H](C(=O)N[C@@H](CC(=O)NCCOCCOCC(=O)NCCCCCCCCCCC(=O)O)C(=O)O)CSCC(=O)N[C@@H](Cc2ccccc2)C(=O)N[C@@H](Cc2c[nH]c3ccccc23)C(=O)N[C@@H](CC(=O)O)C1=O (stereo partly shown) [Example 2178] ({CH2CO}-FWD[NHexGly]Y[Nle]NR[NMeNle][Ahp(2)][NMeL][Ile(3ξ)]SC[βAsp][AEEA][Aun]-OH; thioether N-14) | 46.7 nM
CCCCCCN1CC(=O)N[C@@H](Cc2ccc(O)cc2)C(=O)N[C@@H](CCCC)C(=O)N[C@@H](CC(N)=O)C(=O)N[C@@H](CCCNC(=N)N)C(=O)N(C)[C@@H](CCCC)C(=O)N[C@@H](CCCCC)C(=O)N(C)[C@@H](CC(C)C)C(=O)N[C@@H](C(C)(C)C)C(=O)N[C@@H](CO)C(=O)N[C@H](C(=O)N[C@@H](CC(=O)NCCOCCOCC(=O)NCCCCCCCCCCC(=O)O)C(=O)O)CSCC(=O)N[C@@H](Cc2ccccc2)C(=O)N[C@@H](Cc2c[nH]c3ccccc23)C(=O)N[C@@H](CC(=O)O)C1=O [Example 2179] ({CH2CO}-FWD[NHexGly]Y[Nle]NR[NMeNle][Ahp(2)][NMeL][Tle]SC[βAsp][AEEA][Aun]-OH; thioether N-14) | 30.2 nM
CCCCCCN1CC(=O)N[C@@H](Cc2ccc(O)cc2)C(=O)N[C@@H](CCCC)C(=O)N[C@@H](CC(N)=O)C(=O)N[C@@H](CCCNC(=N)N)C(=O)N(C)[C@@H](CCCC)C(=O)N[C@@H](CCCCC)C(=O)N(C)[C@@H](CC(C)C)C(=O)N[C@@H](C(C)C)C(=O)N[C@@H](CO)C(=O)N[C@H](C(=O)N[C@@H](CC(=O)NCCOCCOCC(=O)NCCCCCCCCCCC(=O)O)C(=O)O)CSCC(=O)N[C@@H](Cc2ccccc2)C(=O)N[C@@H](Cc2c[nH]c3ccccc23)C(=O)N[C@@H](CC(=O)O)C1=O [Example 2180] ({CH2CO}-FWD[NHexGly]Y[Nle]NR[NMeNle][Ahp(2)][NMeL]VSC[βAsp][AEEA][Aun]-OH; thioether N-14) | 18.5 nM
